Legend:
Type in all cases: in vivo
[1] = system: Bitterness of Acetaminophen; assay: Blinded paired taste comparison, bitterness of acetaminophen; conditions: for C Chosen: panelists choosing comparative sample C as highest bitterness; for Test Sample Chosen: panelists choosing test sample as highest bitterness
Description: A series of test samples and a comparative sample were prepared. The comparative sample (C) contained acetaminophen in water at a concentration of 90 mM. Four test samples were prepared. Each test sample contained acetaminophen in water at a concentration of 90 mM. In addition, one test sample (S1) also contained TM1 at 100 ppm, another sample (S2) contained TM1 at 50 ppm, another sample (S3) contained TM1 at 25 ppm, and another sample (S4) contained TM1 at 10 ppm. Sample pairs, a test sample and a comparative sample, were presented in a blinded fashion to panelists, they were asked to taste the samples and identify the sample with the highest bitterness.

[2] = system: Bitterness of Guaifenesin; assay: Blinded paired taste comparison, bitterness of guaifenesin; conditions: 39 panelists
Description: A test sample and a comparative sample were prepared. The comparative sample (C) contained guaifenesin in water at a concentration of 24 mM. The test sample (S1) contained guaifenesin in water at a concentration of 24 mM and TM1 at a concentration of 50 ppm. Sample pairs, a test sample and a comparative sample, were presented in a blinded fashion to panelists, they were asked to taste the samples and identify the sample with the highest bitterness.

Bitterness of Green Tea = assay: Blinded paired taste comparison, bitterness of green tea extract; conditions: 39 panelists; for C Chosen: panelists choosing comparative sample C as highest bitterness; for Test Sample Chosen: panelists choosing test sample as highest bitterness
Description: A series of test samples and a comparative sample were prepared. The comparative sample (C) contained green tea extract in water at a concentration of 0.30 wt %. Two test samples were prepared. Each test sample contained green tea extract in water at a concentration of 0.30 wt %. In addition, one test sample (S1) also contained TM1 at 20 ppm, and another sample (S2) contained TM1 at 40 ppm. Sample pairs, a test sample and a comparative sample, were presented in a blinded fashion to panelists, they were asked to taste the samples and identify the sample with the highest bitterness.

Bitterness of Ginseng = assay: Blinded paired taste comparison, bitterness of ginseng; conditions: sample S1: TM1 10 ppm + ginseng 0.036 wt % in water vs C, 39 panelists
Description: A test sample and a comparative sample were prepared. The comparative sample (C) contained ginseng in water at a concentration of 0.036 wt %. The test sample (S1) contained ginseng in water at a concentration of 0.036 wt % and TM1 at a concentration of 10 ppm. Sample pairs, a test sample and a comparative sample, were presented in a blinded fashion to panelists, they were asked to taste the samples and identify the sample with the highest bitterness.

Bitterness of Caffeine = assay: Blinded paired taste comparison, bitterness of caffeine; conditions: sample S1: TM1 10 ppm + caffeine 0.08 wt % in water vs C, 39 panelists
Description: A test sample and a comparative sample were prepared. The comparative sample (C) contained caffeine in water at a concentration of 0.08 wt %. The test sample (S1) contained caffeine in water at a concentration of 0.08 wt % and TM1 at a concentration of 10 ppm. Sample pairs, a test sample and a comparative sample, were presented in a blinded fashion to panelists, they were asked to taste the samples and identify the sample with the highest bitterness.

[3] = system: Bitterness of Potato Protein; assay: Blinded paired taste comparison, bitterness of potato protein; conditions: sample S1: TM1 10 ppm + potato protein 4 wt % in water vs C, 39 panelists
Description: A test sample and a comparative sample were prepared. The comparative sample (C) contained potato protein in water at a concentration of 4 wt %. The test sample (S1) contained potato protein in water at a concentration of 4 wt % and TM1 at a concentration of 10 ppm. Sample pairs, a test sample and a comparative sample, were presented in a blinded fashion to panelists, they were asked to taste the samples and identify the sample with the highest bitterness.

[4] = system: Bitterness of Pea Protein; assay: Blinded paired taste comparison, bitterness of pea protein; conditions: sample S1: TM1 10 ppm + pea protein 4 wt % in water vs C, 30 panelists
Description: A test sample and a comparative sample were prepared. The comparative sample (C) contained pea protein in water at a concentration of 4 wt %. The test sample (S1) contained pea protein in water at a concentration of 4 wt % and TM1 at a concentration of 10 ppm. Sample pairs, a test sample and a comparative sample, were presented in a blinded fashion to panelists, they were asked to taste the samples and identify the sample with the highest bitterness.

Bitterness of Saccharin = assay: Blinded paired taste comparison, bitterness of saccharin; conditions: sample S1: TM1 10 ppm + saccharin 1000 ppm in water vs C, 33 panelists
Description: A test sample and a comparative sample were prepared. The comparative sample (C) contained saccharin in water at a concentration of 1000 ppm. The test sample (S1) contained saccharin in water at a concentration of 1000 ppm and TM1 at a concentration of 10 ppm. Sample pairs, a test sample and a comparative sample, were presented in a blinded fashion to panelists, they were asked to taste the samples and identify the sample with the highest bitterness.

[5] = system: Bitterness of Grapefruit Juice; assay: Blinded paired taste comparison, bitterness of grapefruit juice; conditions: 39 panelists
Description: A test sample and a comparative sample were prepared. The comparative sample (C) consisted of grapefruit juice. The test sample (S1) consisted of grapefruit juice and TM1 at a concentration of 10 ppm. Sample pairs, a test sample and a comparative sample, were presented in a blinded fashion to panelists, they were asked to taste the samples and identify the sample with the highest bitterness.

Bitterness of Coffee = assay: Blinded paired taste comparison, bitterness of instant coffee; conditions: sample S1: TM1 10 ppm in instant coffee (Taster's Choice French Roast) vs C, 33 panelists
Description: A test sample and a comparative sample were prepared. The comparative sample (C) instant coffee (Taster's Choice French Roast, acquired in the United States) made according to the directions. The test sample (S1) consisted of instant coffee (Taster's Choice French Roast, acquired in the United States) made according to the directions and TM1 at a concentration of 10 ppm. Sample pairs, a test sample and a comparative sample, were presented in a blinded fashion to panelists, they were asked to taste the samples and identify the sample with the highest bitterness.

[6] = sample S2: TM1 50 ppm + acetaminophen 90 mM in water vs C, 48 panelists
[7] = sample S3: TM1 25 ppm + acetaminophen 90 mM in water vs C, 45 panelists
[8] = sample S4: TM1 10 ppm + acetaminophen 90 mM in water vs C, 45 panelists
[9] = sample S1: TM1 20 ppm + green tea extract 0.30 wt % in water vs C
[10] = sample S2: TM1 40 ppm + green tea extract 0.30 wt % in water vs C
[11] = panelists choosing comparative sample C as highest bitterness
[12] = panelists choosing test sample as highest bitterness

CC(=O)c1cc2c(cc1NC(=O)CN1CCN(C(C)=O)CC1)OCCO2 [TM1, N-(7-acetyl-2,3-dihydrobenzo[b][1,4]dioxin-6-yl)-2-(4-acetylpiperazin-1-yl)acetamide]
C Chosen ([1]; sample S1: TM1 100 ppm + acetaminophen 90 mM in water vs C, 31 panelists): 27 | C Chosen [1, 6]: 39 | C Chosen [1, 7]: 33 | C Chosen [1, 8]: 31 | Test Sample Chosen ([1]; sample S1: TM1 100 ppm + acetaminophen 90 mM in water vs C (acetaminophen 90 mM), 31 panelists): 4 | Test Sample Chosen [1, 6]: 9 | Test Sample Chosen [1, 7]: 12 | Test Sample Chosen [1, 8]: 14 | C Chosen ([2]; panelists choosing comparative sample C as highest bitterness, sample S1: TM1 50 ppm + guaifenesin 24 mM in water vs C): 32 | Test Sample Chosen ([2]; panelists choosing test sample as highest bitterness, sample S1: TM1 50 ppm + guaifenesin 24 mM in water vs C (guaifenesin 24 mM)): 7 | C Chosen (Bitterness of Green Tea; [9]): 28 | C Chosen (Bitterness of Green Tea; [10]): 26 | Test Sample Chosen (Bitterness of Green Tea; [9]): 11 | Test Sample Chosen (Bitterness of Green Tea; [10]): 13 | C Chosen (Bitterness of Ginseng; [11]): 26 | Test Sample Chosen (Bitterness of Ginseng; [12]): 13 | C Chosen (Bitterness of Caffeine; [11]): 29 | Test Sample Chosen (Bitterness of Caffeine; [12]): 10 | C Chosen [3, 11]: 26 | Test Sample Chosen [3, 12]: 13 | C Chosen [4, 11]: 20 | Test Sample Chosen [4, 12]: 10 | C Chosen (Bitterness of Saccharin; [11]): 24 | Test Sample Chosen (Bitterness of Saccharin; [12]): 9 | C Chosen ([5]; panelists choosing comparative sample C as highest bitterness, sample S1: TM1 10 ppm in grapefruit juice vs C): 26 | Test Sample Chosen ([5]; panelists choosing test sample as highest bitterness, sample S1: TM1 10 ppm in grapefruit juice vs C (grapefruit juice)): 13 | C Chosen (Bitterness of Coffee; [11]): 27 | Test Sample Chosen (Bitterness of Coffee; [12]): 6

— US20250204564A1, “TASTE MODIFYING COMPOSITIONS AND USES THEREOF” (Firmenich Incorporated, priority 2022, published 2025)
